# Measured values published in patent publication US10106853B2, “CUL4B as predictive biomarker for cancer treatment” (CORNELL UNIVERSITY, priority 2012, dated 2018).
# Where two headings read alike, the source gives them in different places.
# Legend:
# BT474 xenograft tumors = format: in vivo, athymic Nu/J nude mice; conditions: for Xenograft tumor growth under topotecan treatment: topotecan i.p. 5 mg/g every fourth day
# Procedure: (§1) FIG. 5. CUL4B inactivation sensitized BT474 xenograft tumors to topotecan. Stable TGL-BT474 cells (BT474 cells stably expressing GFP-luciferase reporter) were established by retroviral transduction and FACS sorting. The resulting TGL-BT474 cells were infected with recombinant lentiviruses expressing non-targeting shCtrl, shCUL4A or shCUL4B, followed by selection of infected cells with 4 μg/ml puromycine for one week. A) Knockdown of endogenous CUL4A and 4B were verified by immunoblotting. B, C) 1×10^7 of control, CUL4A^k/d, or CUL4B^k/d TGL-BT474 cells were injected subcutaneously in the right flank of each athymic Nu/J nude mice, treated (i.p.) with toptoecan at a dose of 5 mg/g on every 4th day, and tumor burden was measure by bioluminescent imaging. Statistical significance in tumor burden between control and CUL4A^k/d or CUL4B^k/d xenograph are assessed by a two-tailed unpaired student t-test (***: p<0.001). D) Growth rate of control, CUL4A^k/d and CUL4B^k/d BT474 cells in vitro. The same number of control, CUL4A^k/d and CUL4B^k/d BT474 cells were seeded to 96-well plates and cell proliferation was measured using the XTT Cell Proliferation Assay Kit. The data represent the mean value of fold change of cells. Bars indicate the S.E. of six independent experiments. Statistical significance in cellular rate between control cells and CUL4A^k/d or CUL4B^k/d cells are assessed by student's t-test. E-F) Growth rate of control, CUL4A^k/d and CUL4B^k/d TGL-BT474 xenograft in vivo. 1×10^7 of control, CUL4A^k/d or CUL4B^k/d TGL-BT474 cells were injected subcutaneously in the right flank of each mouse of athymic Nu/J nude mice, and tumor burden was measured by bioluminescent imaging (E). On the 22nd day, tumors were collected, and the weight of exercised tumors was measured after mice were sacrificed (F).
# The effect of CUL4B knockdown on an organism's response to CPT treatment was tested in vivo by examining the sensitivity of BT474-CUL4B^k/d, BT474-CUL4A^k/d and control BT474 xenograft tumors to topotecan treatment. Topotecan, (S)-10-[(dimethylamino)methyl]-4-ethyl-4,9-dihydroxy-1H-pyrano[3′,4′:6,7]indolizino[1,2-b]quinoline-3,14(4H,12H)-dione monohydrochloride, is an FDA-approved Top1-directed chemotherapy for the treatment of ovarian, cervical and small cell lung cancer, under the trade name Hycamtin™. Nude mice bearing BT474 xenografts on dorsal skin were treated with topotecan every four (4) days for a period of 44 days. Prior to topotecan administration, the size of the xenograft tumors were identical (FIG. 5). Topotecan was then administered via intraperitoneal injection, and tumor mass was monitors by bioluminescent imaging in four day intervals. […] To rule out the possibility that the growth rate of xenografts were altered during the CUL4B inactivation process (treatment with shRNA) the tumor mass of the three xenograft groups were measured in the absence of topotecan treatment and the weight of the exercised xenograft tumors were analyzed.
# Six week old Female athymic Nu/J nude mice were purchased from Jackson Labs. Mice were housed in laminar air-flow cabinets under specific pathogen-free conditions. Nude mice were inoculated with 0.36 mg 60-day-release 17-b-estradiol pellets (Innovative Research) 24 to 48 hours before implantation of BT-474 cells. 1×10^7 BT-474 cells in 50 ul DMEM medium and 300 ul diluted BD Matrigel™ Basement Membrane Matrix (BD Bioscience, Matrix: PBS is 2:1) were injected subcutaneously in the right flank of each mouse. Tumors were detected once every four days by an IVIS Imaging System (Caliper Life Sciences). When tumors were available to be detected, mice were initially treated with topotecan. Topotecan was administered intraperitoneally on every fourth day from the initiation of therapy at doses of 5 mg/g.
# The IVIS Imaging System (Caliper life sciences) was used for bioluminescent image acquisition and analysis. […]
# BT474 cells = assay: XTT Cell Proliferation Assay, growth rate of BT474 cells in vitro; format: cell-based, Human; conditions: knockdown cells vs control, no drug
# Procedure: as §1, with “B, C) 1×10^7 of control, CUL4A^k/d, or CUL4B^k/d TGL-BT474 cells were injected subcutaneously in the right flank of each athymic Nu/J nude mice, treated (i.p.) with toptoecan at a dose of 5 mg/g on every 4th day, and tumor burden was measure by bioluminescent imaging.” left out, “D) Growth rate of control, CUL4A^k/d and CUL4B^k/d BT474 cells in vitro.” left out, “The data represent the mean value of fold change of cells. Bars indicate the S.E. of six independent experiments.” left out, “E-F) Growth rate of control, CUL4A^k/d and CUL4B^k/d TGL-BT474 xenograft in vivo.” left out
# Top1 = biological target: T1, Top1 (Homo sapiens, UniProt P11387); assay: CPT-induced TOP1 down regulation assay (immunoblotting); format: cell-based; conditions: BT474 cells, lentiviral shRNA; CPT 50 μM, 1 to 1.5 hr
# T1 construct: CPT-induced TOP1 degradation in breast cancer cell lines; host or cells: human breast cancer cell lines BT474, BT20, MCF-7, MDA-MB-231, T47D, Sk-Br-3 (MCF-10A as control)
# T1 sequence (P11387 1-765): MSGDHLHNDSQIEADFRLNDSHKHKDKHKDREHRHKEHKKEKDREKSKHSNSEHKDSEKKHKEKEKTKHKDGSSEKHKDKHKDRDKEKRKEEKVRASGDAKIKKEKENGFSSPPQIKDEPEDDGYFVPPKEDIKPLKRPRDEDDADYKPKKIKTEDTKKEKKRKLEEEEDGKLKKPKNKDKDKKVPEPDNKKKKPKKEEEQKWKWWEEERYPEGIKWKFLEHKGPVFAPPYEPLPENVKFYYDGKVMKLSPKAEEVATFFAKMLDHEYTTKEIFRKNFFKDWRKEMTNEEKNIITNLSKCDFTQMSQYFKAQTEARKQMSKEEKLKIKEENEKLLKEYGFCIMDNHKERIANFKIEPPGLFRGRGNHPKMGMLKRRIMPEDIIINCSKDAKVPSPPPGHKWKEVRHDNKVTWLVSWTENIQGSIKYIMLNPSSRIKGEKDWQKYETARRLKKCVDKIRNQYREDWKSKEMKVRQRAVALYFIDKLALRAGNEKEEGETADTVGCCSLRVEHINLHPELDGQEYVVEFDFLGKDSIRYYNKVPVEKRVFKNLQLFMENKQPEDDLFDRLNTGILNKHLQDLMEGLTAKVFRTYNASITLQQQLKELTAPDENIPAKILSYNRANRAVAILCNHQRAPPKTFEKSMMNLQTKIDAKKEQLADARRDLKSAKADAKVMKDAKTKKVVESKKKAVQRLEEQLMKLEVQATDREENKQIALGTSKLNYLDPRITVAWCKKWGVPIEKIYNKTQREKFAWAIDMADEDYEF
# Procedure: FIG. 1. CPT-induced TOP1 degradation in breast cancer cell lines. A) Expression of endogenous CUL4A and 4B in breast cancer cell lines. Total cell lysates were prepared from the indicated breast cancer cell lines and subjected to SDS PAGE and immunoblotting with antibodies against CUL4A, 4B and α-tubulin. The non-cancerous MCF-10A cell line was used as a control for comparison. B) CPT-induced TOP1 degradation in breast cancer cell lines. Cells were treated with 12.5 μM CPT or 1% DMSO for 4 hours, replenished with CPT-free fresh medium and incubated at 37° C. for 30 minutes to reverse the formation of TOP1 cleavable complex. Cells were then lysed and immunoblotted with the TOP1 and α-tubulin antibodies.
# FIG. 2. CUL4B interacted with Top1 and induced Top1 degradation in the presence of CPT. A) Knockdown of CUL4B impaired CPT-induced Top1 degradation. BT474 cells were infected with lentiviral shCUL4B, shCUL4A or control non-targeting shRNA, and selected for stable CUL4B^k/d or CUL4A^k/d cells upon treatment with puromycin. Following treatment with CPT (50 μM) for 1 hour, cells were replenished with CPT-free fresh medium and incubated at 37° C. for 30 minutes. Top1 degradation was assessed by immunoblotting with an anti-Top1 antibody. Levels of α-tubulin were measured as a loading control. B) Association of CUL4B with Top1 following CPT treatment. BT474 cells were treated with proteosome inhibitor MG132 (15 μM) for 3 hours, and were subjected to crosslinking with 0.2 mM Dithiobis[succinimidyl propionate](DSP) for the last 30 min at room temperature. Cell lysates were prepared, and immunoprecipitated with the anti-Top1 or anti-CUL4B antibodies, and then immunoblotted using antibodies against CUL4B or Top1, respectively. IgG immunoprecipitates served as the negative control. C) Knockdown of CUL4B using a second shCUL4B-2 impaired CPT-induced Top1 degradation. BT474 cells were infected with lentiviral shCUL4B-2, shCUL4A-2 or control non-targeting shRNA and selected for stable CUL4B^k/d or CUL4A^k/d cells upon treatment with puromycin. Following treatment with CPT (50 μM) for 1.5 hr, cells were replenished with CPT-free fresh medium and incubated at 37° C. for 30 min. Top1 degradation was assessed by immunoblotting with the anti-Top1 antibody. Levels of α-tubulin were measured as a loading control. D) CUL4B inactivation sensitized BT474 cells to cytotoxic killing by camptothecin. BT474, BT474-CUL4A^k/d or BT474-CUL4B^k/d cells were synchronized with 1 μM nocodazole for 13 hours released in fresh medium, treated with the indicated concentrations of CPT for three days, and subjected to the XTT assay to measure the cytotoxic responses to CPT. […] The bars indicate the S.E. of six independent experiments. Statistical significance in cellular response to CPT between control BT474 cells and CUL4A^k/d or CUL4B^k/d cells were assessed by a two-tailed unpaired student t-test (***: p<0.001). The same results were obtained with a second lentiviral shRNA for CUL4A and CUL4B, as well as in T47D breast cancer cells. E, F) Knockdown of CUL4B increased the sensitivity of T47D cells to camptothecin. […] Statistical significance in cellular response to camptothecin between control cells and CUL4A^k/d or CUL4B^k/d BT474 cells are assessed by student's t-test.
# CPT-induced Top1 degradation was monitored by immunoblotting of the alkaline lysates. […]
molecule,measurement,setting,value
"CC[C@@]1(O)C(=O)OCc2c1cc1n(c2=O)Cc2cc3c(CN(C)C)c(O)ccc3nc2-1.Cl [topotecan, (S)-10-[(dimethylamino)methyl]-4-ethyl-4,9-dihydroxy-1H-pyrano[3′,4′:6,7]indolizino[1,2-b]quinoline-3,14(4H,12H)-dione monohydrochloride]",Xenograft tumor growth under topotecan treatment,"BT474 xenograft tumors; BT474-CUL4A k/d xenografts, 44 days",continue to grow
same,Xenograft tumor growth under topotecan treatment,BT474 xenograft tumors; BT474-CUL4B k/d xenografts vs control and CUL4A k/d groups (p<0.001),largely attenuated
same,Xenograft tumor growth under topotecan treatment,"BT474 xenograft tumors; control BT474 xenografts, 44 days",continue to grow
same,Size of control and shCUL4A xenografts relative to shCUL4B xenografts,BT474 xenograft tumors; final day of topotecan treatment,5 fold
same,Detection of xenografts by bioluminescent imaging,"BT474 xenograft tumors; several shCUL4B xenografts, final day of topotecan treatment",not detectable
shCUL4A: lentiviral shRNA CUL4A sequence purchased from Sigma Aldrich (CCGGGCAGAACTGATCGCAAAGCATCTCGAGATGCTTTGCGATCAGTTCTGCTTTTT),Growth rate of cultured BT474 cells in vitro,BT474 cells,reduced the growth rate slightly
same,Growth rate of xenografts vs control,"BT474 xenograft tumors; without topotecan administration, tumor burden and excised tumor weight",no significant difference
shCUL4B-2: second lentiviral shRNA CUL4B sequence purchased from Sigma Aldrich (CCGGGCAATTCTTCAGAAAGGTTTACTCGAGTAAACCTTTCTGAAGAATTGCTTTTT),Effect of shRNA knockdown on CPT-induced Top1 degradation,Top1,impaired
